Results reported in patent US20210261570A1, “ANTIBIOTIC RESISTANCE BREAKERS” (KING'S COLLEGE LONDON, priority 2017, published 2021).
Values after ≈ are worked out from the molar mass of the structure shown. Values joined by “and” are separate entries in the source; they are usually repeats but may differ in a detail not shown here. Equal entries are not always repeated. Where two headings read alike, the source gives them in different places.

Tests used:
[1] = system: Neisseria gonorrhoeae strains; type: cell-based
Source text: Untreated controls and blank wells were included.

[2] = system: Staphylococcus aureus ATCC29213; experiment: Murine model of thigh infection (neutropenic ICR mice); conditions: for decrease of thigh bacterial burden compared to vehicle group: 8 h and 14 h post infection
Source text: 40 Male mice used in these study were supplied by Charles River UK and were specific pathogen free. The strain of mouse used was Hsd:ICR (CD-1®), which is a well characterized outbred strain. Mice were 11-15 g on receipt at Evotec's facility and were allowed to acclimatize for minimum of 7 days prior to infection. Mice were approximately 28 g at the start of the study. Mice were housed in sterile individual ventilated cages exposing animals at all times to HEPA filtered sterile air. Mice had free access to food and water (sterile) and had sterile aspen chip bedding. The room temperature was 22° C.±1° C., with a relative humidity of 50-60% and maximum background noise of 56 dB. Mice were exposed to 12 hour light/dark cycles with dawn/dusk phases.
All mice were rendered neutropenic by immunosuppression with cyclophosphamide at 150 mg/kg 4 days before infection and then 100 mg/kg 1 day before infection administered by intraperitoneal injection. The immunosuppression regime leads to neutropenia starting 24 hours post administration of the first injection, which continues throughout the study. Mice were infected approximately 24 hours after the second dose of immunosuppressive agent.
Staphylococcus aureus ATCC29213 was used for the study.
Whilst still under anaesthesia mice were administered a single dose of buprenorphine (0.03 mg/kg) subcutaneously for pain relief.
Test articles and comparator were prepared in stock solutions at 10× concentration as described in Table 20. The stock solutions were prepared in aliquots (1 aliquot per time of dosing) and frozen at −20° C. The solutions were thawed and then diluted in water just before dosing to obtain the appropriate concentration of 5 mg/mL or 2 mg/mL for oral administration at 10 mL/kg of the dose of 50 mg/kg or 20 mg/kg respectively (Table 20). 10% DMSO in water was used as the vehicle
After sacrifice of animal, both posterior thighs were removed, weighed, then homogenised in 2 mL PBS using a Precellys bead beater and the homogenates individually quantitatively cultured on CLED agar to determine the bacterial burdens.
The data from the culture burdens were analysed using appropriate non-parametric statistical models (Kruskal-Wallis using Conover-Inman to make all pairwise comparisons between groups) with StatsDirect software v. 2.7.8., and compared to pre-treatment and vehicle controls.

## C[C@H]1COc2c(N3CC[C@@H](Nc4ncccn4)C3)c(F)cc3c(=O)c(C(=O)O)cn1c23 [KSN-82-L22]
[1]; strain FDA-CDC AR-BANK#0193, resistance CIP-S PEN-R TET-R
  MIC: ≤0.03125 µg/mL
[1]; strain FDA-CDC AR-BANK#0194, resistance CRO-NS CIP-S PEN-I TET-R
  MIC: ≤0.03125 µg/mL
[1]; strain FDA-CDC AR-BANK#0195, resistance CIP-R PEN-I TET-R
  MIC: 2 µg/mL (≈ 4.7 µM)
[1]; strain FDA-CDC AR-BANK#0196, resistance CIP-R PEN-R TET-R
  MIC: 2 µg/mL (≈ 4.7 µM)
[1]; strain FDA-CDC AR-BANK#0197, resistance CIP-R PEN-I TET-I
  MIC: 2 µg/mL (≈ 4.7 µM)
[1]; strain FDA-CDC AR-BANK#0198, resistance CIP-R PEN-R TET-R
  MIC: 2 µg/mL (≈ 4.7 µM)
[1]; strain FDA-CDC AR-BANK#0199, resistance CIP-S PEN-R TET-R
  MIC: ≤0.03125 µg/mL
[1]; strain FDA-CDC AR-BANK#0200, resistance CIP-R PEN-R TET-R
  MIC: 2 µg/mL (≈ 4.7 µM)
[1]; strain FDA-CDC AR-BANK#0201, resistance CIP-R PEN-R TET-R
  MIC: 2 µg/mL (≈ 4.7 µM)
[1]; strain FDA-CDC AR-BANK#0202, resistance CIP-S PEN-S TET-I
  MIC: ≤0.03125 µg/mL
[1]; strain FDA-CDC AR-BANK#0203, resistance CIP-R PEN-R TET-R
  MIC: 2 µg/mL (≈ 4.7 µM)
[1]; strain FDA-CDC AR-BANK#0204, resistance CIP-R PEN-I TET-R
  MIC: 2 µg/mL (≈ 4.7 µM)
[1]; strain FDA-CDC AR-BANK#0205, resistance CIP-R PEN-R TET-R
  MIC: 2 µg/mL (≈ 4.7 µM)
[1]; strain FDA-CDC AR-BANK#0206, resistance CIP-R PEN-R TET-R
  MIC: 2 µg/mL (≈ 4.7 µM)
[1]; strain FDA-CDC AR-BANK#0207, resistance CIP-R PEN-R TET-R
  MIC: 2 µg/mL (≈ 4.7 µM)
[1]; strain FDA-CDC AR-BANK#0208, resistance CIP-R PEN-I TET-R
  MIC: 2 µg/mL (≈ 4.7 µM)
[1]; strain FDA-CDC AR-BANK#0209, resistance CIP-R PEN-I TET-R
  MIC: 2 µg/mL (≈ 4.7 µM)
[1]; strain FDA-CDC AR-BANK#0210, resistance CIP-R PEN-I TET-I
  MIC: 2 µg/mL (≈ 4.7 µM)
[1]; strain FDA-CDC AR-BANK#0211, resistance CIP-R PEN-R TET-R
  MIC: 2 µg/mL (≈ 4.7 µM)
[1]; strain FDA-CDC AR-BANK#0212, resistance CIP-R PEN-I TET-R
  MIC: 2 µg/mL (≈ 4.7 µM)
[1]; strain FDA-CDC AR-BANK#0213, resistance CIP-R PEN-I TET-I
  MIC: 1 µg/mL (≈ 2.35 µM)
[1]; strain FDA-CDC AR-BANK#0214, resistance CIP-R PEN-R TET-R
  MIC: 2 µg/mL (≈ 4.7 µM)
[1]; strain NCTC 13817, resistance PEN-R TET-I
  MIC: 0.5 µg/mL (≈ 1.18 µM)
[1]; strain NCTC 13818, resistance CIP-R OFX-R PEN-R TET-R
  MIC: 2 µg/mL (≈ 4.7 µM)
[1]; strain NCTC 13819, resistance FEP-NS CAZ-NS CIP-R OFX-R PEN-R TET-I
  MIC: 2 µg/mL (≈ 4.7 µM)
[1]; strain NCTC 13820, resistance FEP-NS CFM-NS CAZ-NS CRO-NS CIP-R OFX-R PEN-R TET-R
  MIC: 2 µg/mL (≈ 4.7 µM)
[1]; strain NCTC 13821, resistance FEP-NS CFM-NS CAZ-NS CRO-NS CIP-R PEN-I TET-I
  MIC: 2 µg/mL (≈ 4.7 µM)
[1]; strain NCTC 13822, resistance FEP-NS CFM-NS CAZ-NS CIP-R OFX-R PEN-R TET-I
  MIC: 2 µg/mL (≈ 4.7 µM)
[1]; strain TCDC-NG08107, resistance PEN-R CFM-R CPD-R CIP-R
  MIC: 2 µg/mL (≈ 4.7 µM)
[2]; 20 mg/kg group, day 0 (day of infection)
  Bodyweight raw data, individual mouse: 29.4 and 27.2 and 30.5 and 29.7
[2]; 20 mg/kg group, day 1 post infection
  Bodyweight raw data, individual mouse: 29.3 and 29.5 and 27.5 and 31.3 and 31.0
[2]; 20 mg/kg group, day −1 post infection (before treatment)
  Bodyweight raw data, individual mouse: 29.1 and 29.2 and 27.3 and 30.2 and 29.8
[2]; 20 mg/kg group, day −4 post infection (before treatment)
  Bodyweight raw data, individual mouse: 28.7 and 30.2 and 26.9 and 29.8 and 29.7
[2]; 20 mg/kg/dose oral at 2 h, 18 h post infection
  decrease of thigh bacterial burden compared to vehicle group: 5 log10 CFU/g and > 5 log10 CFU/g
[2]; 50 mg/kg group, day 0 (day of infection)
  Bodyweight raw data, individual mouse: 28.2 and 27.8 and 29.3 and 26.6 and 25.6
[2]; 50 mg/kg group, day 1 post infection
  Bodyweight raw data, individual mouse: 29 and 28.1 and 30.1 and 26.1 and 26.4
[2]; 50 mg/kg group, day −1 post infection (before treatment)
  Bodyweight raw data, individual mouse: 27.9 and 29.5 and 29.1 and 26.5 and 26.8
[2]; 50 mg/kg group, day −4 post infection (before treatment)
  Bodyweight raw data, individual mouse: 27.8 and 29.2 and 28.9 and 27.0 and 27.9
[2]; 50 mg/kg/dose oral at 2 h, 18 h post infection
  decrease of thigh bacterial burden compared to vehicle group: > 5 log10 CFU/g
[2]; 20 and 50 mg/kg, 18 h post infection
  thigh bacterial burden, result in words: significantly decreased bacterial burden
[2]; infected neutropenic mice, treated groups
  body weights following infection: slightly increased
[2]; substance at 20 mg/kg
  Statistic analysis of thigh burden, P versus ML-83-009 20 mg/kg: P < 0.0001
  Statistic analysis of thigh burden, P versus ML-83-009 50 mg/kg: P = 0.0002
  Statistic analysis of thigh burden, P versus Pre treatment: P = 0.0139
  Statistic analysis of thigh burden, P versus Vehicle: P < 0.0001
[2]; substance at 50 mg/kg
  Statistic analysis of thigh burden, P versus ML-83-009 20 mg/kg: P < 0.0001
  Statistic analysis of thigh burden, P versus ML-83-009 50 mg/kg: P < 0.0001
  Statistic analysis of thigh burden, P versus Pre treatment: P = 0.0026
  Statistic analysis of thigh burden, P versus Vehicle: P < 0.0001
